Data from patent US9012446B2, “Amino-oxazines and amino-dihydrothiazine compounds as beta-secretase modulators and methods of use” (Amgen Inc., priority 2010, dated 2015).
Values joined by “and” are separate entries in the source; they are usually repeats but may differ in a detail not shown here. Equal values may be shown once. Read-outs that look alike come from different tables or passages of the source.

Assays:
BACE = BACE (Homo sapiens, UniProt P56817); test: In vitro enzymatic BACE FRET assay; assay type: biochemical; conditions: average IC50, enzyme assay; read-out: BACE 1 FRET assay
BACE, sequence (P56817 46-501, species assumed): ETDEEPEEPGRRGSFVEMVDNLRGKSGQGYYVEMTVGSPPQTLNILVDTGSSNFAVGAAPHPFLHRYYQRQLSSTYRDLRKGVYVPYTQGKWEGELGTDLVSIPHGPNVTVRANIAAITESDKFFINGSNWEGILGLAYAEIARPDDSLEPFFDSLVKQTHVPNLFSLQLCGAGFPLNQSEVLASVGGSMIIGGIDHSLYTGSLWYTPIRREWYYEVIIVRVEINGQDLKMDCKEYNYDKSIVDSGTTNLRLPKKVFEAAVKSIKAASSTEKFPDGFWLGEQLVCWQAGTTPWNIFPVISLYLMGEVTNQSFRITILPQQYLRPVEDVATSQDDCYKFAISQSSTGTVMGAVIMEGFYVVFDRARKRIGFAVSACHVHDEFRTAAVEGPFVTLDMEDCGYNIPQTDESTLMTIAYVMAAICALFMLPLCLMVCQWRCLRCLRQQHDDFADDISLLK
Procedure: In Vitro Enzymatic BACE FRET (Fluorescence Resonance Energy Transfer) Assay (Enzyme Assay Data in the Example Table I) The assay buffer used in this screen is 0.05 M acetate, pH 4.2, 10% DMSO final, 100 uM genapol (which is a nonionic detergent, below its Critical Micelle Concentration). The beta secretase enzyme (0.2 nM) is pre-incubated for one hour with inhibitors, typically in about 1 uL of DMSO according to a serial dilution, are added thereto. This assay is effectively started by the addition of FRET substrate (50 nM) and the combination is incubated for one hour. The FRET assay is terminated with by addition of Tris buffer, which raises the pH to neutrality, and the fluorescence is determined. The FRET substrate is a peptide with commercially available fluorophore and quencher, on opposite sides of the BACE cleavage site. Proteolytic cleavage of the FRET substrate releases quenching of fluorescence (excitation 488 nm and emission […]).

Aβ40 = test: In vitro BACE cell-based assay (Aβ40 sandwich ELISA, cells stably expressing APP); conditions: Homo sapiens
Procedure: In Vitro BACE Cell-Based Assay […] Cells stably expressing Amyloid Precursor Protein (APP) were plated at a density of 40K cells/well in 96 well plates (Costar). The cells were cultivated for 24 hours at 37° C. and 5% CO2 in DMEM supplemented with 10% FBS. The test compounds were then added to cells in 10-point dose response concentrations with the starting concentration being either 100 μM or 10 μM. The compounds were diluted from stock solutions in DMSO and the final DMSO concentration of the test compounds on cells was 0.1%. […] The IC50 of the compound was calculated from the percent of control or percent inhibition of Aβ40 as a function of the concentration of the test compound. The sandwich ELISA to detect Aβ40 was performed in 96 well microtiter plates, which were pre-treated with goat anti-rabbit IgG (Pierce). […] The optimal concentration for the pAb40 antibody was 3 μg/ml in Superblock/TBS (Pierce) that was supplemented with 0.05% Tween 20 (Sigma). […] Cellular supernatants were incubated with the capture antibody for 3 h at 4° C., followed by 3 wash steps in TBS-tween (0.05%). The detecting antibody incubation was for 2 h at 4° C., again followed by the wash steps as described previously. The final readout of the ELISA is Time-Resolved Fluorescence (counts per minute) using Delfia reagents Streptavidin-Europium and Enhancement solutions (Perkin Elmer) and the Victor 2 multilabel counter (Perkin Elmer).

[1] = HEK293, average IC50, cell assay, HEK cells
[2] = HEK293, average IC50, read-out: HEK cell assay

Structure (SMILES) | IC50 (BACE) | IC50 (Aβ40; [1]) [nM] | IC50 (Aβ40; [2]) [nM]
NC1=N[C@]2(COC1)c1cc(-c3cccnc3F)ccc1Oc1c(F)cc(-c3ccnc(F)c3)cc12 [36B] | 140 nM | 628 | 
CC(C)(F)COc1cc(F)c2c(c1)[C@@]1(COCC(N)=N1)c1cc(-c3cccnc3F)ccc1O2 [37B] | 110 nM | 64.1 | 
NC1=N[C@@]2(COC1)c1cc(-c3cccnc3F)ccc1Oc1cnc(C3CCOCC3)cc12 [Example 34, (S)-7-(2-fluoropyridin-3-yl)-3-(tetrahydro-2H-pyran-4-yl)-2′,6′-dihydrospiro[chromeno[2,3-c]pyridine-5,3′-[1,4]oxazin]-5′-amine] | 0.7 nM | 0.9 | 
NC1=N[C@@]2(COC1)c1cc(-c3cccnc3F)ccc1Oc1c(F)cc(N3CCOCC3)cc12 [Example 35A, (S)-4′-fluoro-7′-(2-fluoropyridin-3-yl)-2′-morpholino-2,6-dihydrospiro[[1,4]oxazine-3,9′-xanthen]-5-amine] | 0.5 nM | 1.9 | 
NC1=N[C@@]2(COC1)c1cc(O)ccc1Oc1c(F)cc(-c3ccnc(F)c3)cc12 [Example 39, (S)-5-amino-4′-fluoro-2′-(2-fluoropyridin-4-yl)-2,6-dihydrospiro[[1,4]oxazine-3,9′-xanthen]-7′-ol] | 368 nM | 2590 | 
NC1=N[C@@]2(COC1)c1cc(-c3cccnc3F)ccc1Oc1c(F)cc(C3CCOCC3)cc12 [Example 42, (S)-4′-fluoro-7′-(2-fluoropyridin-3-yl)-2′-(tetrahydro-2H-pyran-4-yl)-2,6-dihydrospiro[[1,4]oxazine-3,9′-xanthen]-5-amine] | 0.4 nM | 2.4 | 
CC(C)(C)COc1cc2c(cn1)Oc1ccc(-c3cccnc3F)cc1[C@@]21COCC(NC=O)=N1 [Example 43, (S)—N-(7-(2-fluoropyridin-3-yl)-3-(neopentyloxy)-2′,6′-dihydrospiro[chromeno[2,3-c]pyridine-5,3′-[1,4]oxazine]-5′-yl)formamide] | 17.4 nM | 1.2 | 
CC(C)(C)COc1cc2c(cn1)Oc1ccc(N3CCC(F)(F)CC3)cc1[C@@]21COCC(N)=N1 [Example 44, (S)-7-(4,4-difluoropiperidin-1-yl)-3-(neopentyloxy)-2′,6′-dihydrospiro[chromeno[2,3-c]pyridine-5,3′-[1,4]oxazin]-5′-amine] | 10.5 nM | 19.3 | 
COc1cc(F)c2c(c1)[C@]1(COCC(N)=N1)c1cc(N3CCC(F)(F)CC3)ccc1O2 [Example 45, (S)-7′-(4,4-difluoropiperidin-1-yl)-4′-fluoro-2′-methoxy-2,6-dihydrospiro[[1,4]oxazine-3,9′-xanthen]-5-amine] | 158 nM | 420 | 
CC1(COc2cc(F)c3c(c2)[C@]2(COCC(N)=N2)c2cc(N4CCC(F)(F)CC4)ccc2O3)COC1 [Example 46, (S)-7′-(4,4-difluoropiperidin-1-yl)-4′-fluoro-2′-((3-methyloxetan-3-yl)methoxy)-2,6-dihydrospiro[[1,4]oxazine-3,9′-xanthen]-5-amine] | 9.4 nM |  | 32.1
COc1cc(F)c2c(c1)[C@]1(COCC(N)=N1)c1cc(-c3cccnc3F)ccc1O2 [Example 48, (S)-4′-fluoro-7′-(2-fluoropyridin-3-yl)-2′-methoxy-2,6-dihydrospiro[[1,4]oxazine-3,9′-xanthen]-5-amine] | 1.5 nM | 15.6 | 
NC1=N[C@@]2(COC1)c1cc(-c3cccnc3F)ccc1Oc1cnc(OC(F)F)cc12 [Example 49, (S)-3-(difluoromethoxy)-7-(2-fluoropyridin-3-yl)-2′,6′-dihydrospiro[chromeno[2,3-c]pyridine-5,3′-[1,4]oxazin]-5′-amine] | 6.7 nM |  | 11.5
COc1cc2c(cn1)Oc1ccc(-c3ccc(F)c(F)c3)cc1[C@@]21COCC(N)=N1 [Example 50, (S)-7-(3,4-difluorophenyl)-3-methoxy-2′,6′-dihydrospiro[chromeno[2,3-c]pyridine-5,3′-[1,4]oxazin]-5′-amine] | 30.9 nM |  | 106
CC(C)(C)C#Cc1cnc2c(c1)[C@]1(COCC(N)=N1)c1cc(-c3cccnc3)ccc1O2 [Example 52, (S)-3-(3,3-dimethylbut-1-ynyl)-7-(pyridin-3-yl)-2′,6′-dihydrospiro[chromeno[2,3-b]pyridine-5,3′-[1,4]oxazin]-5′-amine] | 0.4 nM |  | 0.3
CC(C)(C)C#Cc1ccc2c(c1)[C@@]1(COCC(N)=N1)c1cc(C#CC(C)(C)C)cnc1O2 [Example 53, (S)-3,7-bis(3,3-dimethylbut-1-ynyl)-2′,6′-dihydrospiro[chromeno[2,3-b]pyridine-5,3′-[1,4]oxazin]-5′-amine] | 5.4 nM |  | 25.1
NC1=N[C@@]2(COC1)c1cc(-c3cccnc3F)ccc1Oc1c2cc(N2CCOCC2)nc1F [Example 58, (S)-1-fluoro-7-(2-fluoropyridin-3-yl)-3-morpholino-2′,6′-dihydrospiro[chromeno[2,3-c]pyridine-5,3′-[1,4]oxazin]-5′-amine 2,2,2-trifluoroacetate] | 0.5 nM |  | 0.7
CC(C)(C)COc1cc2c(c(F)n1)Oc1ccc(-c3cccnc3F)cc1[C@]21COCC(N)=N1 [Example 59B, (R)-1-fluoro-7-(2-fluoropyridin-3-yl)-3-(neopentyloxy)-2′,6′-dihydrospiro[chromeno[2,3-c]pyridine-5,3′-[1,4]oxazin]-5′-amine] | 84.9 nM |  | 370
CC(C)(C)COc1cnc2c(c1)[C@]1(CCOC(N)=N1)c1cc(-c3cccnc3F)ccc1O2 [Example 62, (S)-7-(2-fluoropyridin-3-yl)-3-(neopentyloxy)-5′,6′-dihydrospiro[chromeno[2,3-b]pyridine-5,4′-[1,3]oxazin]-2′-amine] | 2.5 nM |  | 4.8
CC#Cc1cncc(-c2ccc3c(c2)[C@@]2(COCC(N)=N2)c2cc(C4=CCCOC4)cc(F)c2O3)c1 [Example 66, (S)-2′-(5,6-dihydro-2H-pyran-3-yl)-4′-fluoro-7′-(5-(prop-1-ynyl)pyridin-3-yl)-2,6-dihydrospiro[[1,4]oxazine-3,9′-xanthen]-5-amine] | 0.5 nM | 1.5 | 
CC(C)(C)COc1ccc2c(c1)[C@]1(COCC(N)=N1)c1cc(-c3cccnc3F)ccc1O2 [Example 67, (3S)-2′-(2,2-dimethylpropoxy)-7′-(2-fluoro-3-pyridinyl)-6H-spiro[1,4-oxazine-3,9′-xanthen]-5-amine] | 2 nM and 0.7 nM | 15.5 | 13.1
NC1=N[C@@]2(COC1)c1cc(-c3cccnc3F)ccc1Oc1ncc(N3CC[C@@H](F)C3)cc12 [Example 68, (S)-7-(2-fluoropyridin-3-yl)-3-((R)-3-fluoropyrrolidin-1-yl)-2′,6′-dihydrospiro[chromeno[2,3-b]pyridine-5,3′-[1,4]oxazin]-5′-amine] | 1.4 nM | 1.2 | 
CC(C)(F)COc1cc(F)c2c(c1)[C@]1(CCSC(N)=N1)c1cc(-c3cccnc3F)ccc1O2 [Example 204, (S)-4′-fluoro-2′-(2-fluoro-2-methylpropoxy)-7′-(2-fluoropyridin-3-yl)-5,6-dihydrospiro[[1,3]thiazine-4,9′-xanthen]-2-amine] | 2.8 nM |  | 11.2
NC1=N[C@@]2(CCO1)c1cc(-c3cccnc3F)ccc1Oc1c2cc(-c2cccnc2)nc1F [Example 241, (S)-1-fluoro-7-(2-fluoropyridin-3-yl)-3-(pyridin-3-yl)-5′,6′-dihydrospiro[chromeno[2,3-c]pyridine-5,4′-[1,3]oxazin]-2′-amine] | 0.6 nM |  | 0.9
NC1=N[C@]2(COC1)c1cc(-c3cccnc3F)ccc1Oc1cnc(-c3ccnc(F)c3)cc12 [compound 70] | 52.4 nM | 268 | 
NC1=N[C@@]2(COC1)c1cc(-c3cccnc3F)ccc1Oc1cnc(C3=CCOCC3)cc12 [compound 71] | 0.4 nM | 1.2 | 
CC#Cc1cncc(-c2ccc3c(c2)[C@@]2(COCC(N)=N2)c2cc(-c4ccnc(F)c4)ncc2O3)c1 [compound 75] | 0.5 nM | 2.8 | 
NC1=N[C@@]2(COC1)c1cc(-c3cncnc3)ccc1Oc1cnc(-c3ccnc(F)c3)cc12 [compound 78] | 0.5 nM | 1.1 | 
NC1=N[C@@]2(COC1)c1cc(-c3cncnc3)ccc1Oc1cnc(-c3ccc(F)c(F)c3)cc12 [compound 79] | 0.3 nM | 0.8 | 
NC1=N[C@@]2(COC1)c1cc(-c3cccnc3F)ccc1Oc1cnc([C@H]3CCCOC3)cc12 [compound 80] | 3.9 nM | 5.8 | 
